# Experimental data published in patent US20130012491A1, “PYRIMIDINE DERIVATIVES FOR USE AS SPHINGOSINE 1-PHOSPHATE 1 (S1P1) RECEPTOR AGONISTS” (GLAXO GROUP LIMITED, priority 2010, published 2013).
# Structures can show the parent of a compound that is named as a salt.
# Tested on: animal models of immune disorders
# Assay: not given
# Settings: cited from earlier work
row,Compound,disease modulating activity
1,CCCCCCCCc1ccc(CCC(N)(CO)CO)cc1 [FTY720],disease modulating activity

# Tested on: circulating lymphocytes
# Assay: not given
# Settings: animals and man; cited from earlier work
row,Compound,effect on circulating lymphocytes
1,CCCCCCCCc1ccc(CCC(N)(CO)CO)cc1 [FTY720],reduce circulating lymphocytes

# Tested on: S1P3 knock-out animals
# Assay: not given
# Settings: unlike wild type mice; cited from earlier work
row,Compound,bradycardia
1,CCCCCCCCc1ccc(CCC(N)(CO)CO)cc1 [FTY720],do not demonstrate bradycardia

# Biological target: T1, S1P3 (human Endothelial Differentiation G-protein Coupled Receptor 3 (EDG3)) (Homo sapiens, UniProt Q99500)
# T1 construct: expressed in transfected cells; host or cells: GeneBLAzer EDG3-Ga15-NFAT-bla HEK 293T cells
# T1 sequence (Q99500 whole entry): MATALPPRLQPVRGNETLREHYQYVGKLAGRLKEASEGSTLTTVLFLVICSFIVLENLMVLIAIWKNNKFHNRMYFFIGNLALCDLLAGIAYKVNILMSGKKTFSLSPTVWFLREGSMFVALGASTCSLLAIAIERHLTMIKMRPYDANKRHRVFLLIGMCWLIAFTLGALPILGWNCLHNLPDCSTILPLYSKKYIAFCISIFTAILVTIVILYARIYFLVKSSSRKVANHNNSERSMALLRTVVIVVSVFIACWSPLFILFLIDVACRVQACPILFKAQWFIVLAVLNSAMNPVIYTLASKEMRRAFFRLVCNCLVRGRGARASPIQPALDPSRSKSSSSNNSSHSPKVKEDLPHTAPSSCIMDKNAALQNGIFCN
# Assay: S1P3 GeneBlazer assay
# Assay type: cell-based
# Settings: agonist, EDG3-Ga15-NFAT-bla HEK 293T cells, beta-lactamase FRET readout
# Protocol: GeneBLAzer EDG3-Ga15-NFAT-bla HEK 293T cells (contain the human Endothelial Differentiation G-protein Coupled Receptor 3 (EDG3) and a beta-lactamase reporter gene under control of a […] response element and a promiscuous G Protein, Ga15, stably integrated into the GeneBLAzer Ga15-NFAT-bla HEK 293T cell line) were harvested from growth medium and suspended in assay medium (90% DMEM, 10% Charcoal-stripped FBS, 0.1 mM NEAA, 25 mM HEPES (pH 7.3), 100 U/ml penicillin, 100 μg/ml streptomycin) at a density of ˜200,000 cells/ml.
# All test compounds were dissolved in DMSO at a concentration of 10 mM and were prepared in 100% DMSO to provide 10 point dose response curves. Test compounds prepared by Bravo (Velocity11) were added to wells in columns 2-11 and 13-22; DMSO was added to wells in columns 12 and 23 as unstimulated controls and assay medium was added to wells in columns 1 and 24 as cell-free controls. An S1P3 agonist was added to wells in row 2, columns 2-11 as stimulated controls and test compounds were added to wells in row 2, columns 13-22 and rows 3-15, columns 2-11/13-22 (row 1 and 16 were empty and not used). Compounds in solution were added to the assay plate (Greiner 781090) using an Echo (Labcyte) dose-response program (50 nl/well). The unstimulated and cell-free controls were loaded with 50 nl/well pure DMSO to ensure that the DMSO concentration was constant across the plate for all assays.
# 50 μl of the cell suspension was added to each well in columns 2-23 of the plate (˜10,000 cells per well). 50 μl of assay medium was added to each well in the cell-free controls (columns 1 and 24). The cells were incubated overnight at 37° C./5% CO2.
# 10 μl of 6× substrate mixture (LiveBLAzer™-FRET B/G substrate (CCF4-AM) Cat # K1096 from Invitrogen, Inc.) was added to each well using Bravo and the plates incubated at room temperature for 2 h in the dark. The plate was finally read on EnVision using one excitation channel (409 nm) and two emission channels (460 nm and 530 nm).
# The blue/green emission ratio (460 nm/530 nm) was calculated for each well, by dividing the background-subtracted Blue emission values by the background-subtracted Green emission values. The dose response curve is based on sigmoidal dose-response model. All ratio data was normalized based upon the maximum emission ratio of positive control and minimum emission ratio of negative control (DMSO) on each plate. The intrinsic activity (IA) of each compound would be the normalized percentage of its maximum response after curve fitting.
row,Compound,EC50 [µM]
1,"CCc1c(CNCCC(=O)O)cccc1-c1cnc(-c2ccc(OC(C)C)c(C(F)(F)F)c2)nc1 [Example 10, N-[(2-ethyl-3-{2-[4-[(1-methylethyl)oxy]-3-(trifluoromethyl)phenyl]-5-pyrimidinyl}phenyl)methyl]-b-alanine]",≤ 2
2,"CCc1c(CN2CC(C(=O)O)C2)cccc1-c1cnc(-c2ccc(OC(C)C)c(C(F)(F)F)c2)nc1 [Example 11, 1-[(2-ethyl-3-{2-[4-[(1-methylethyl)oxy]-3-(trifluoromethyl)phenyl]-5-pyrimidinyl}phenyl)methyl]-3-azetidinecarboxylic acid]",≤ 10
3,"CCc1c(CN2CCC(C(=O)O)CC2)cccc1-c1cnc(-c2ccc(OC(C)C)c(C(F)(F)F)c2)nc1 [Example 13, 1-[(2-ethyl-3-{2-[4-[(1-methylethyl)oxy]-3-(trifluoromethyl)phenyl]-5-pyrimidinyl}phenyl)methyl]-4-piperidinecarboxylic acid]",≤ 10
4,"CCc1c(-c2cnc(-c3ccc(OC(C)C)c(Cl)c3)nc2)cccc1C1CCN(CCC(=O)O)CC1 [Example 15, 3-{4-[3-(2-{3-chloro-4-[(1-methylethyl)oxy]phenyl}-5-pyrimidinyl)-2-ethylphenyl]-1-piperidinyl}propanoic acid trifluoroacetate]",≤ 10
5,"CCc1c(CCN(C)CC(=O)O)cccc1-c1cnc(-c2ccc(OC(C)C)c(Cl)c2)nc1 [Example 27, N-{2-[3-(2-{3-chloro-4-[(1-methylethyl)oxy]phenyl}-5-pyrimidinyl)-2-ethylphenyl]ethyl}-N-methylglycine]",≤ 10
6,"CCc1c(CCN2CC(C(=O)O)C2)cccc1-c1cnc(-c2ccc(OC(C)C)c(Cl)c2)nc1 [Example 28, N-{2-[3-(2-{3-chloro-4-[(1-methylethyl)oxy]phenyl}-5-pyrimidinyl)-2-ethylphenyl]ethyl}-3-azetidinecarboxylic acid]",≤ 2
7,"CCc1c(CCN2CCC(C(=O)O)C2)cccc1-c1cnc(-c2ccc(OC(C)C)c(Cl)c2)nc1 (stereo not shown) [Example 29, 1-{2-[3-(2-{3-chloro-4-[(1-methylethyl)oxy]phenyl}-5-pyrimidinyl)-2-ethylphenyl]ethyl}-3-pyrrolidinecarboxylic acid]",≤ 2
8,"CCc1c(CCN2CC[C@H](C(=O)O)C2)cccc1-c1cnc(-c2ccc(OC(C)C)c(Cl)c2)nc1 [Example 30, (3S)-1-{2-[3-(2-{3-chloro-4-[(1-methylethyl)oxy]phenyl}-5-pyrimidinyl)-2-ethylphenyl]ethyl}-3-pyrrolidinecarboxylic acid]",≤ 2
9,"CCc1c(CCN2CCCC(C(=O)O)C2)cccc1-c1cnc(-c2ccc(OC(C)C)c(Cl)c2)nc1 (stereo not shown) [Example 31, 1-{2-[3-(2-{3-chloro-4-[(1-methylethyl)oxy]phenyl}-5-pyrimidinyl)-2-ethylphenyl]ethyl}-3-piperidinecarboxylic acid]",≤ 10
10,"CCc1c(CCN2CCC[C@H](C(=O)O)C2)cccc1-c1cnc(-c2ccc(OC(C)C)c(Cl)c2)nc1 [Example 32, (3S)-1-{2-[3-(2-{3-chloro-4-[(1-methylethyl)oxy]phenyl}-5-pyrimidinyl)-2-ethylphenyl]ethyl}-3-piperidinecarboxylic acid]",≤ 10
11,"CCc1c(CCN2CCC(C(=O)O)CC2)cccc1-c1cnc(-c2ccc(OC(C)C)c(Cl)c2)nc1 [Example 33, 1-{2-[3-(2-{3-chloro-4-[(1-methylethyl)oxy]phenyl}-5-pyrimidinyl)-2-ethylphenyl]ethyl}-4-piperidinecarboxylic acid]",≤ 2
12,"CCc1c(CCN(C)CC(=O)O)cccc1-c1cnc(-c2ccc(CC(C)C)c(C#N)c2)nc1 [Example 34, N-[2-(3-{2-[3-cyano-4-(2-methylpropyl)phenyl]-5-pyrimidinyl}-2-ethylphenyl)ethyl]-N-methylglycine trifluoroacetate]",≤ 10
13,"CCc1c(CCN(C)CCC(=O)O)cccc1-c1cnc(-c2ccc(CC(C)C)c(C#N)c2)nc1 [Example 35, N-[2-(3-{2-[3-cyano-4-(2-methylpropyl)phenyl]-5-pyrimidinyl}-2-ethylphenyl)ethyl]-N-methyl-b-alanine]",≤ 10
14,"CCc1c(CCN2CC(C(=O)O)C2)cccc1-c1cnc(-c2ccc(CC(C)C)c(C#N)c2)nc1 [Example 36, 1-[2-(3-{2-{3-cyano-4-(2-methylpropyl)phenyl}-5-pyrimidinyl}-2-ethylphenyl)ethyl]-3-azetidinecarboxylic acid]",≤ 10
15,"CCc1c(CCN2CCC(C(=O)O)C2)cccc1-c1cnc(-c2ccc(CC(C)C)c(C#N)c2)nc1 (stereo not shown) [Example 37, 1-[2-(3-{2-[3-cyano-4-(2-methylpropyl)phenyl]-5-pyrimidinyl}-2-ethylphenyl)ethyl]-3-pyrrolidinecarboxylic acid]",≤ 10
16,"CCc1c(CCN2CCCC(C(=O)O)C2)cccc1-c1cnc(-c2ccc(CC(C)C)c(C#N)c2)nc1 (stereo not shown) [Example 38, 1-[2-(3-{2-[3-cyano-4-(2-methylpropyl)phenyl]-5-pyrimidinyl}-2-ethylphenyl)ethyl]-3-piperidinecarboxylic acid]",≤ 10
17,"CCc1c(CCN2CCC[C@H](C(=O)O)C2)cccc1-c1cnc(-c2ccc(CC(C)C)c(C#N)c2)nc1 [Example 39, (3S)-1-[2-(3-{2-[3-cyano-4-(2-methylpropyl)phenyl]-5-pyrimidinyl}-2-ethylphenyl)ethyl]-3-piperidinecarboxylic acid]",≤ 10
18,"CCc1c(CCN2CCC(C(=O)O)CC2)cccc1-c1cnc(-c2ccc(CC(C)C)c(C#N)c2)nc1 [Example 40, 1-[2-(3-{2-[3-cyano-4-(2-methylpropyl)phenyl]-5-pyrimidinyl}-2-ethylphenyl)ethyl]-4-piperidinecarboxylic acid]",≤ 2

# Tested on: not given
# Assay: not given
# Settings: clinical studies, first 24 hours of treatment; cited from earlier work
row,Compound,bradycardia
1,CCCCCCCCc1ccc(CCC(N)(CO)CO)cc1 [FTY720],results in bradycardia
